Experimental data published in patent US6737383B1, “Herbicidal oxadiazolidines” (priority 1999, dated 2004).

Key:
soybean = test: Test B pre/postemergence soybean; type: in vivo, Glycine max
How it was run: (§1)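 Herbicidal effect was estimated by eye on a ten-point control scale after plants spent twelve to sixteen days in a greenhouse following soil or foliar treatment. Foliar sprays targeted plants at one to four leaves; all doses were formulated in a non-phytotoxic solvent with surfactant.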

velvetleaf = test: Test B pre/postemergence velvetleaf; type: in vivo, Abutilon theophrasti
How it was run: as §1

surinam grass = test: Test B pre/postemergence surinam grass; type: in vivo, Brachiaria decumbens
How it was run: as §1

blackgrass = test: Test B pre/postemergence blackgrass; type: in vivo, Alopecurus myosuroides
How it was run: as §1

bedstraw = test: Test B pre/postemergence bedstraw; type: in vivo, Galium aparine
How it was run: as §1

rape = test: Test B pre/postemergence rape; type: in vivo, Brassica napus
How it was run: as §1

corn = test: Test B pre/postemergence corn; type: in vivo, Zea mays
How it was run: as §1

bamyardgrass = test: Test B flood test barnyardgrass; type: in vivo, Echinochloa crus-galli
How it was run: (§2)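 Read-out is a visual response score from 0 (no effect) to 10 (complete control), assigned by comparison with untreated controls. Treatment was applied at the 2-leaf stage, and plants stayed in the greenhouse for twelve to sixteen days before scoring.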

wheat = test: Test B pre/postemergence wheat; type: in vivo, Triticum aestivum
How it was run: as §1

smallflower flatsedge = test: Test B flood test smallflower flatsedge; type: in vivo, Cyperus difformis
How it was run: as §2

sugar beet = test: Test B pre/postemergence sugar beet; type: in vivo, Beta vulgaris
How it was run: as §1

pigweed = test: Test B pre/postemergence pigweed; type: in vivo, Amaranthus retroflexus
How it was run: as §1

wild oat = test: Test B pre/postemergence wild oat; type: in vivo, Avena fatua
How it was run: as §1

cocklebur = test: Test B pre/postemergence cocklebur; type: in vivo, Xanthium strumarium
How it was run: as §1

crabgrass = test: Test B pre/postemergence crabgrass; type: in vivo, Digitaria sanguinalis
How it was run: as §1

purple nutsedge = test: Test B pre/postemergence purple nutsedge; type: in vivo, Cyperus rotundus
How it was run: as §1

[1] = Postemergence, Rate 62 g/ha, scale 0 to 10, 0 is no effect, 10 is complete control
[2] = Postemergence, Rate 125 g/ha, scale of 0 to 10 where 0 is no effect and 10 is complete control
[3] = Postemergence, Rate 250 g/ha, scale of 0 to 10, 0 is no effect, 10 is complete control
[4] = Preemergence, Rate 62 g/ha, scale of 0 to 10 where 0 is no effect and 10 is complete control
[5] = Preemergence, Rate 125 g/ha, scale of 0 to 10 where 0 is no effect and 10 is complete control
[6] = Preemergence, Rate 250 g/ha, scale 0 to 10 (0 no effect, 10 complete control)
[7] = Preemergence, Rate 500 g/ha, scale of 0 to 10 where 0 is no effect and 10 is complete control
[8] = Postemergence, Rate 500 g/ha, scale of 0 to 10 where 0 is no effect and 10 is complete control
[9] = Rate 62 g/ha, flood test species, Pre-emergence, visual evaluation after twelve to sixteen days
[10] = Rate 125 g/ha, under heading Pre-emergence, flood test species, visual evaluation after twelve to sixteen days
[11] = Rate 250 g/ha, Pre-emergence (flood test species), scale 0 to 10, 0 is no effect, 10 is complete control
[12] = Rate 500 g/ha, Pre-emergence section of Table B, 0 to 10 scale (0 no effect, 10 complete control)

CCCCCn1c(=O)on(C(=O)N(c2ccc(F)cc2F)C(C)C)c1=O [Compound 636]
2: Plant response rating, Soybean (soybean; [1]) | Plant response rating, Soybean (soybean; [2]) | Plant response rating, Velvetleaf (velvetleaf; [6]) | Blackgrass plant response rating (blackgrass; [4]) | Plant response rating, Rape (rape; [1]) | Rape plant response rating (rape; [5]) | Plant response rating, Corn (corn; [1]) | Plant response rating, Corn (corn; [2]) | Corn plant response rating (corn; [3]) | Plant response rating, Corn (corn; [8]) | Barnyardgrass plant response rating (bamyardgrass; [12]) | Plant response rating, Wheat (wheat; [7]) | Plant response rating, Sugarbeets (sugar beet; [1]) | Plant response rating, Sugarbeets (sugar beet; [2])
0: Soybean plant response rating (soybean; [4]) | Soybean plant response rating (soybean; [5]) | Plant response rating, Soybean (soybean; [6]) | Velvetleaf plant response rating (velvetleaf; [4]) | Velvetleaf plant response rating (velvetleaf; [5]) | Plant response rating, B. signalgrass (surinam grass; [1]) | Plant response rating, B. signalgrass (surinam grass; [2]) | B. signalgrass plant response rating (surinam grass; [3]) | Plant response rating, Blackgrass (blackgrass; [1]) | Plant response rating, Blackgrass (blackgrass; [2]) | Rape plant response rating (rape; [4]) | Corn plant response rating (corn; [5]) | Plant response rating, Corn (corn; [6]) | Plant response rating, Barnyardgrass (0 to 10 scale, 0 is no effect, 10 is complete control) (bamyardgrass; [9]) | Barnyardgrass plant response rating (0 to 10 scale, 0 is no effect, 10 is complete control) (bamyardgrass; [10]) | Barnyardgrass plant response rating (bamyardgrass; [11]) | Plant response rating, Wheat (wheat; [1]) | Plant response rating, Wheat (wheat; [2]) | Wheat plant response rating (wheat; [3]) | Wheat plant response rating (wheat; [4]) | Wheat plant response rating (wheat; [5]) | Plant response rating, Wheat (wheat; [6]) | Plant response rating, S. Flatsedge (0 to 10 scale, 0 is no effect, 10 is complete control) (smallflower flatsedge; [9]) | S. Flatsedge plant response rating (0 to 10 scale, 0 is no effect, 10 is complete control) (smallflower flatsedge; [10]) | S. Flatsedge plant response rating (smallflower flatsedge; [11]) | S. Flatsedge plant response rating (smallflower flatsedge; [12]) | Sugarbeets plant response rating (sugar beet; [4]) | Sugarbeets plant response rating (sugar beet; [5]) | Plant response rating, Redroot pigweed (pigweed; [1]) | Plant response rating, Redroot pigweed (pigweed; [2]) | Plant response rating, Wild oats (wild oat; [1]) | Plant response rating, Wild oats (wild oat; [2]) | Wild oats plant response rating (wild oat; [3]) | Wild oats plant response rating (wild oat; [4]) | Wild oats plant response rating (wild oat; [5]) | Plant response rating, Wild oats (wild oat; [6]) | Plant response rating, Cocklebur (cocklebur; [1]) | Cocklebur plant response rating (cocklebur; [4]) | Cocklebur plant response rating (cocklebur; [5]) | Plant response rating, Cocklebur (cocklebur; [6]) | Plant response rating, Cocklebur (cocklebur; [7]) | Plant response rating, Nutsedge (purple nutsedge; [1]) | Plant response rating, Nutsedge (purple nutsedge; [2]) | Nutsedge plant response rating (purple nutsedge; [3]) | Plant response rating, Nutsedge (purple nutsedge; [8]) | Nutsedge plant response rating (purple nutsedge; [4]) | Nutsedge plant response rating (purple nutsedge; [5]) | Plant response rating, Nutsedge (purple nutsedge; [6])
5: Plant response rating, Blackgrass (blackgrass; [8]) | Bedstraw plant response rating (bedstraw; [5]) | Sugarbeets plant response rating (sugar beet; [3]) | Plant response rating, Wild oats (wild oat; [7])
3: Plant response rating, Velvetleaf (velvetleaf; [1]) | Plant response rating, Velvetleaf (velvetleaf; [2]) | Velvetleaf plant response rating (velvetleaf; [3]) | Plant response rating, B. signalgrass (surinam grass; [8]) | B. signalgrass plant response rating (surinam grass; [4]) | Blackgrass plant response rating (blackgrass; [3]) | Plant response rating, Corn (corn; [7]) | Plant response rating, Cocklebur (cocklebur; [2]) | Cocklebur plant response rating (cocklebur; [3]) | Plant response rating, Cocklebur (cocklebur; [8]) | Plant response rating, Crabgrass (crabgrass; [1])
8: Plant response rating, B. signalgrass (surinam grass; [6]) | Crabgrass plant response rating (crabgrass; [4])
7: Plant response rating, Blackgrass (blackgrass; [7]) | Plant response rating, Bedstraw (bedstraw; [1]) | Plant response rating, Bedstraw (bedstraw; [2]) | Rape plant response rating (rape; [3]) | Plant response rating, Rape (rape; [8]) | Plant response rating, Rape (rape; [6]) | Plant response rating, Sugarbeets (sugar beet; [7])
10: Plant response rating, Rape (rape; [7]) | Redroot pigweed plant response rating (pigweed; [4]) | Redroot pigweed plant response rating (pigweed; [5]) | Plant response rating, Redroot pigweed (pigweed; [6]) | Plant response rating, Redroot pigweed (pigweed; [7]) | Plant response rating, Crabgrass (crabgrass; [6]) | Plant response rating, Crabgrass (crabgrass; [7]) | Plant response rating, Nutsedge (purple nutsedge; [7])
4: Soybean plant response rating (soybean; [3]) | Plant response rating, Soybean (soybean; [7]) | Plant response rating, Velvetleaf (velvetleaf; [7]) | Blackgrass plant response rating (blackgrass; [5]) | Plant response rating, Blackgrass (blackgrass; [6])
6: Plant response rating, Rape (rape; [2]) | Plant response rating, Sugarbeets (sugar beet; [6]) | Redroot pigweed plant response rating (pigweed; [3])
9: B. signalgrass plant response rating (surinam grass; [5]) | Plant response rating, B. signalgrass (surinam grass; [7]) | Bedstraw plant response rating (bedstraw; [3]) | Plant response rating, Bedstraw (bedstraw; [6]) | Plant response rating, Bedstraw (bedstraw; [7]) | Plant response rating, Crabgrass (crabgrass; [2]) | Crabgrass plant response rating (crabgrass; [3]) | Plant response rating, Crabgrass (crabgrass; [8]) | Crabgrass plant response rating (crabgrass; [5])
